Measurements as given in patent publication US6372917B1, “Biphenylsulfonyl-substituted imidazole derivatives, their preparation process, their use as a drug or diagnostic agent and drug containing them” (Aventis Pharma Deutschland GmbH, priority 1998, dated 2002).

Tests used:
[1] = tested on: Na+-dependent Cl-/HCO3- exchanger (NCBE); assay: Inhibition of the Na+-dependent Cl-/HCO3- exchanger (NCBE) in human endothelial cells (pHi recovery, BCECF fluorescence, FLIPR); format: cell-based; conditions: inhibitor concentration 10 μM; human endothelial cells (ECV-304); 50 μM HOE 642 present; 35° C., 2 minutes
Protocol: Inhibition of the Na^+-dependent Cl^−/HCO3^− exchanger (NCBE) in human endothelial cells
Human endothelial cells (ECV-304) were detached from culture bottles with the aid of trypsin/EDTA buffer (0.05/0.02% in phosphate buffer) and, after centrifugation (100 g, 5 min), taken up in a buffered salt solution (mmol/l: 115 NaCl, 20 NH4Cl, 5 KCl, 1 CaCl2, 1 MgSO4, 20 N-(2-hydroxyethyl)piperazine-N-2-ethanesulfonic acid (HEPES), 5 glucose and 1 g/l of bovine serum albumin; pH 7.4). This cell suspension was incubated at 37° C. for 20 min with 5 μM BCECF-acetoxymethyl ester. […] For subsequent fluorescence measurement in an FLIPR (Fluorescent Imaging Plate Reader) 100 μl of this cell suspension having 20,000 cells in each case were pipetted per well into a 96-well microtiter plate and this microtiter plate was centrifuged (100 g, 5 min). […] After addition of the buffer solutions to the dye-loaded, acidified cells in the measurement plate, the rise in the fluorescence intensity, which corresponded to a rise in the pHi, in each well of the microtiter plate was determined. The kinetics were in this case recorded at 35° C. for a period of 2 minutes. The increase in the fluorescence intensities for different concentrations of the compounds according to the invention was related to the two controls and from this the inhibitory action of the substances was determined.

## CS(=O)(=O)c1cc(-c2ccccc2S(=O)(=O)NC#N)ccc1Cn1c(-c2ccccc2)nc(Cl)c1C=O [Example 2, 4′-(4-Chloro-5-formyl-2-phenylimidazol-1-ylmethyl)-3′-methanesulfonylbiphenyl-2-sulfonylcyanamide]
other
  melting point: 220 °C (dec.)
[1]
  Residual activity of the NCBE at an inhibitor concentration of 10 μM: 18.3%
